This note sets out measurements from ChEMBL document CHEMBL1697781, “Assessment of the health effects of chemicals in humans: II. Construction of an adverse effects database for QSAR modeling” (Curr Drug Discov Technol, 2004).

A value given as a limit tells only on which side of the number the result lay.

Common to all, as to conditions: human
Data set [1] has as its system Hepatotoxicity. As to the kind of experiment: FDA HLAED, serum glutamic oxaloacetic transaminase (SGOT) increase.
For data set [2], the system named is Hepatotoxicity. As to the kind of experiment: FDA HLAED, gamma-glutamyl transferase (GGT) increase.
The subject of data set [3] is Hepatotoxicity. As to the kind of experiment: FDA HLAED, lactate dehydrogenase (LDH) increase.
In data set [4] the test system is Hepatotoxicity. As to the kind of experiment: FDA HLAED, alkaline phosphatase increase.
Data set [5] deals with Hepatotoxicity. The data set is described as follows: FDA HLAED, serum glutamic pyruvic transaminase (SGPT) increase.
The subject of data set [6] is Hepatotoxicity. The data set is described as follows: FDA HLAED, liver enzyme composite activity.
Wherever GGT Increase - Index Value is given: reference of the scale not given here.
Wherever LDH Increase - Index Value is given: reference of the scale not given here.

With `CCOC(=O)[C@H](CCc1ccccc1)N[C@@H](C)C(=O)N1[C@H](C(=O)O)C[C@@H]2CCC[C@@H]21`, in the data set with Hepatotoxicity [1], the “SGOT Increase - Activity Score” value is given as “Inactive”, the “SGOT Increase - Index Value” was determined as 0.8 and the “SGOT Increase - Number of Reports” value is given as less than 4. For the same compound, in the data set on Hepatotoxicity [2], the “GGT Increase - Activity Score” value is on record as “Inactive”, the “GGT Increase - Index Value” was determined as 1.4 and the “GGT Increase - Number of Reports” value is recorded as “>= 4”. In addition, in the data set with Hepatotoxicity [3], the “LDH Increase - Activity Score” value was “Inactive”, the “LDH Increase - Index Value” stood at 0.5 and the “LDH Increase - Number of Reports” value is on record as less than 4. Further, in the data set with Hepatotoxicity [4], the “Alkaline Phosphatase Increase - Activity Score” value is “Inactive”, the “Alkaline Phosphatase Increase - Index Value” is reported as 1.1 and the “Alkaline Phosphatase Increase - Number of Reports” value is “>= 4”. Further, in the data set on Hepatotoxicity [5], the “SGPT Increase - Activity Score” value was “Inactive”, the “SGPT Increase - Index Value” amounted to 0.5 and the “SGPT Increase - Number of Reports” value is recorded as less than 4. For the same compound, in the data set on Hepatotoxicity [6], the “Composite Activity - Active” value is reported as 0, the “Composite Activity - Marginal” value worked out at 0 and the “Composite Activity - Score” value was “Inactive”.
As for `FC(F)OC(F)C(F)(F)F` (centres undefined), in the data set on Hepatotoxicity [1], the “SGOT Increase - Activity Score” value is “Inactive”, the “SGOT Increase - Index Value” turned out to be 1.3 and the “SGOT Increase - Number of Reports” value is “>= 4”. In the data set on Hepatotoxicity [2], the “GGT Increase - Activity Score” value is given as “Inactive”, the “GGT Increase - Index Value” came out at 0.5 and the “GGT Increase - Number of Reports” value was less than 4. In addition, in the data set with Hepatotoxicity [3], the “LDH Increase - Activity Score” value is “Inactive”, the “LDH Increase - Index Value” is 0.5 and the “LDH Increase - Number of Reports” value is listed as less than 4. In the data set on Hepatotoxicity [4], the “Alkaline Phosphatase Increase - Activity Score” value is given as “Inactive”, the “Alkaline Phosphatase Increase - Index Value” amounted to 0.3 and the “Alkaline Phosphatase Increase - Number of Reports” value was less than 4. Moreover, in the data set on Hepatotoxicity [5], the “SGPT Increase - Activity Score” value was “Inactive”, the “SGPT Increase - Index Value” was found to be 0.8 and the “SGPT Increase - Number of Reports” value is recorded as less than 4. In the data set with Hepatotoxicity [6], the “Composite Activity - Active” value came to 0, the “Composite Activity - Marginal” value was determined as 0 and the “Composite Activity - Score” value is “Inactive”.
For `O=C(O)[C@@H](S)[C@@H](S)C(=O)O`, in the data set on Hepatotoxicity [1], the “SGOT Increase - Activity Score” value is recorded as “Active”, the “SGOT Increase - Index Value” was determined as 175.4 and the “SGOT Increase - Number of Reports” value was “>= 4”. Besides, in the data set on Hepatotoxicity [2], the “GGT Increase - Activity Score” value was “Active”, the “GGT Increase - Index Value” is reported as 87.7 and the “GGT Increase - Number of Reports” value is reported as less than 4. For the same compound, in the data set on Hepatotoxicity [3], the “LDH Increase - Activity Score” value is “Inactive”, the “LDH Increase - Index Value” is 43.9 and the “LDH Increase - Number of Reports” value is given as less than 4. In the data set on Hepatotoxicity [4], the “Alkaline Phosphatase Increase - Activity Score” value is “Active”, the “Alkaline Phosphatase Increase - Index Value” is listed as 175.4 and the “Alkaline Phosphatase Increase - Number of Reports” value is given as “>= 4”. Also, in the data set on Hepatotoxicity [5], the “SGPT Increase - Activity Score” value is listed as “Active”, the “SGPT Increase - Index Value” was determined as 131.6 and the “SGPT Increase - Number of Reports” value is listed as less than 4. For the same compound, in the data set on Hepatotoxicity [6], the “Composite Activity - Active” value amounted to 4, the “Composite Activity - Marginal” value is reported as 0 and the “Composite Activity - Score” value is listed as “Active”.
On to `CC1=C(CC(=O)O)c2cc(F)ccc2/C1=C\c1ccc([S+](C)[O-])cc1` (centres undefined), for which, in the data set on Hepatotoxicity [1], the “SGOT Increase - Activity Score” value is recorded as “Inactive”, the “SGOT Increase - Index Value” was 0 and the “SGOT Increase - Number of Reports” value is listed as less than 4. In the data set on Hepatotoxicity [2], the “GGT Increase - Activity Score” value is “Inactive”, the “GGT Increase - Index Value” was 0 and the “GGT Increase - Number of Reports” value is less than 4. Besides, in the data set on Hepatotoxicity [3], the “LDH Increase - Activity Score” value is recorded as “Inactive”, the “LDH Increase - Index Value” was 0 and the “LDH Increase - Number of Reports” value was less than 4. Besides, in the data set with Hepatotoxicity [4], the “Alkaline Phosphatase Increase - Activity Score” value is reported as “Inactive”, the “Alkaline Phosphatase Increase - Index Value” is 0 and the “Alkaline Phosphatase Increase - Number of Reports” value is less than 4. Moreover, in the data set on Hepatotoxicity [5], the “SGPT Increase - Activity Score” value is “Inactive”, the “SGPT Increase - Index Value” is listed as 0 and the “SGPT Increase - Number of Reports” value was less than 4. Besides, in the data set on Hepatotoxicity [6], the “Composite Activity - Active” value amounted to 0, the “Composite Activity - Marginal” value turned out to be 0 and the “Composite Activity - Score” value is “Inactive”.
Turning to `CCOC(=O)[C@H](CCc1ccccc1)N[C@@H](C)C(=O)N1Cc2ccccc2C[C@H]1C(=O)O`, in the data set with Hepatotoxicity [1], the “SGOT Increase - Activity Score” value is reported as “Inactive”, the “SGOT Increase - Index Value” is given as 1.1 and the “SGOT Increase - Number of Reports” value is recorded as “>= 4”. Further, in the data set with Hepatotoxicity [2], the “GGT Increase - Activity Score” value is “Inactive”, the “GGT Increase - Index Value” amounted to 1.4 and the “GGT Increase - Number of Reports” value is listed as “>= 4”. In addition, in the data set on Hepatotoxicity [3], the “LDH Increase - Activity Score” value is reported as “Inactive”, the “LDH Increase - Index Value” worked out at 0.4 and the “LDH Increase - Number of Reports” value is given as less than 4. Moreover, in the data set on Hepatotoxicity [4], the “Alkaline Phosphatase Increase - Activity Score” value is on record as “Inactive”, the “Alkaline Phosphatase Increase - Index Value” came out at 1.4 and the “Alkaline Phosphatase Increase - Number of Reports” value is recorded as “>= 4”. In addition, in the data set on Hepatotoxicity [5], the “SGPT Increase - Activity Score” value is “Inactive”, the “SGPT Increase - Index Value” is recorded as 1.2 and the “SGPT Increase - Number of Reports” value is reported as “>= 4”. In addition, in the data set on Hepatotoxicity [6], the “Composite Activity - Active” value was 0, the “Composite Activity - Marginal” value is 0 and the “Composite Activity - Score” value is “Inactive”.
`CCOC(=O)[C@H](CCc1ccccc1)N[C@@H](C)C(=O)N1CCC[C@H]1C(=O)O`: in the data set with Hepatotoxicity [1], the “SGOT Increase - Activity Score” value is given as “Inactive”, the “SGOT Increase - Index Value” is reported as 1 and the “SGOT Increase - Number of Reports” value is “>= 4”. In addition, in the data set with Hepatotoxicity [2], the “GGT Increase - Activity Score” value is on record as “Inactive”, the “GGT Increase - Index Value” is reported as 0.2 and the “GGT Increase - Number of Reports” value is recorded as “>= 4”. In the data set with Hepatotoxicity [3], the “LDH Increase - Activity Score” value is “Inactive”, the “LDH Increase - Index Value” turned out to be 0.6 and the “LDH Increase - Number of Reports” value is “>= 4”. Moreover, in the data set on Hepatotoxicity [4], the “Alkaline Phosphatase Increase - Activity Score” value was “Inactive”, the “Alkaline Phosphatase Increase - Index Value” was determined as 0.9 and the “Alkaline Phosphatase Increase - Number of Reports” value was “>= 4”. In the data set on Hepatotoxicity [5], the “SGPT Increase - Activity Score” value was “Inactive”, the “SGPT Increase - Index Value” is listed as 0.8 and the “SGPT Increase - Number of Reports” value is on record as “>= 4”. Also, in the data set on Hepatotoxicity [6], the “Composite Activity - Active” value is given as 0, the “Composite Activity - Marginal” value was 0 and the “Composite Activity - Score” value is listed as “Inactive”.
On to `COc1ccc(CCN(C)CCCC(C#N)(c2ccc(OC)c(OC)c2)C(C)C)cc1OC` (centres undefined), for which, in the data set on Hepatotoxicity [2], the “GGT Increase - Activity Score” value is “Inactive” and the “GGT Increase - Number of Reports” value is given as less than 4. Besides, in the data set with Hepatotoxicity [3], the “LDH Increase - Activity Score” value is recorded as “Inactive” and the “LDH Increase - Number of Reports” value is given as less than 4. Moreover, in the data set on Hepatotoxicity [4], the “Alkaline Phosphatase Increase - Activity Score” value is “Inactive” and the “Alkaline Phosphatase Increase - Number of Reports” value is on record as “>= 4”. Further, in the data set on Hepatotoxicity [5], the “SGPT Increase - Activity Score” value is recorded as “Inactive” and the “SGPT Increase - Number of Reports” value is less than 4. Besides, in the data set with Hepatotoxicity [6], the “Composite Activity - Active” value is reported as 0, the “Composite Activity - Marginal” value came out at 0 and the “Composite Activity - Score” value is listed as “Inactive”.
Consider `NC1=NC(=O)C(c2ccccc2)O1` (centres undefined) [PEMOLINE], for which, in the data set on Hepatotoxicity [1], the “SGOT Increase - Activity Score” value is “Active”, the “SGOT Increase - Index Value” came out at 22.7 and the “SGOT Increase - Number of Reports” value is recorded as “>= 4”. In the data set with Hepatotoxicity [3], the “LDH Increase - Activity Score” value was “Active”, the “LDH Increase - Index Value” is on record as 6.2 and the “LDH Increase - Number of Reports” value is listed as “>= 4”. Besides, in the data set on Hepatotoxicity [4], the “Alkaline Phosphatase Increase - Activity Score” value is given as “Active”, the “Alkaline Phosphatase Increase - Index Value” is 14 and the “Alkaline Phosphatase Increase - Number of Reports” value is “>= 4”. For the same compound, in the data set with Hepatotoxicity [5], the “SGPT Increase - Activity Score” value is reported as “Active”, the “SGPT Increase - Index Value” is reported as 23.5 and the “SGPT Increase - Number of Reports” value is recorded as “>= 4”. Moreover, in the data set on Hepatotoxicity [6], the “Composite Activity - Active” value is recorded as 4, the “Composite Activity - Marginal” value is reported as 0 and the “Composite Activity - Score” value is reported as “Active”.
As to `CO[C@H]1/C=C/O[C@@]2(C)Oc3c(C)c(O)c4c(O)c(c(/C=N/N5CCN(C)CC5)c(O)c4c3C2=O)NC(=O)/C(C)=C\C=C\[C@H](C)[C@H](O)[C@@H](C)[C@@H](O)[C@@H](C)[C@H](OC(C)=O)[C@@H]1C` [RIFAMPIN], in the data set on Hepatotoxicity [1], the “SGOT Increase - Activity Score” value is “Active”, the “SGOT Increase - Index Value” is on record as “No Shipping Units” and the “SGOT Increase - Number of Reports” value was “>= 4”. In addition, in the data set with Hepatotoxicity [3], the “LDH Increase - Activity Score” value is given as “Marginally Active”, the “LDH Increase - Index Value” is listed as “No Shipping Units” and the “LDH Increase - Number of Reports” value was “>= 4”. Also, in the data set with Hepatotoxicity [4], the “Alkaline Phosphatase Increase - Activity Score” value was “Marginally Active”, the “Alkaline Phosphatase Increase - Index Value” is recorded as “No Shipping Units” and the “Alkaline Phosphatase Increase - Number of Reports” value was “>= 4”. In the data set on Hepatotoxicity [5], the “SGPT Increase - Activity Score” value is “Marginally Active”, the “SGPT Increase - Index Value” is given as “No Shipping Units” and the “SGPT Increase - Number of Reports” value is given as “>= 4”. For the same compound, in the data set with Hepatotoxicity [6], the “Composite Activity - Active” value came to 1, the “Composite Activity - Marginal” value was found to be 3 and the “Composite Activity - Score” value is on record as “Marginally Active”.
Take `CC(C)c1nc(CN(C)C(=O)N[C@H](C(=O)N[C@@H](Cc2ccccc2)C[C@H](O)[C@H](Cc2ccccc2)NC(=O)OCc2cncs2)C(C)C)cs1` [RITONAVIR]: in the data set on Hepatotoxicity [1], the “SGOT Increase - Number of Reports” value is reported as “>= 4”. The “GGT Increase - Number of Reports” value in the data set with Hepatotoxicity [2] was “>= 4”. The “LDH Increase - Number of Reports” value in the data set with Hepatotoxicity [3] was “>= 4”. Further, in the data set with Hepatotoxicity [4], the “Alkaline Phosphatase Increase - Number of Reports” value is “>= 4”. The “SGPT Increase - Number of Reports” value in the data set on Hepatotoxicity [5] is recorded as “>= 4”.
